# In patent publication US4996204A, “Pyrido[2,3-d]pyridazinones as aldose reductase inhibitors” (Pfizer Inc., priority 1989, dated 1991):
# Target: T1, partially purified aldose reductase enzyme obtained from human placenta (Homo sapiens, UniProt P15121)
# T1 construct: partially purified aldose reductase enzyme obtained from human placenta; from tissue; host or cells: human placenta
# Experiment: inhibition of aldose reductase enzyme activity (procedure of S. Hayman et al. as modified by K. Sestanj et al.)
# Type: biochemical
# Settings: read-out: Percent Inhibition (%) of aldose reductase enzyme activity; for inhibition at 10 µM: 10^-5 M; for inhibition at 1 µM: 10^-6 M; for inhibition at 0.1 µM: 10^-7 M
# Source text: Hayman et al., as described in the Journal of Biological Chemistry, Vol. 240, p. 877 (1965) and as modified by K. Sestanj et al. in U.S. Pat. […] In every case, the substrate employed was partially purified aldose reductase enzyme obtained from human placenta.
inhibition at 10 µM,inhibition at 1 µM,inhibition at 0.1 µM,Structure (SMILES)
88%,81%,74%,"O=C(O)Cc1nn(Cc2nc3cc(C(F)(F)F)ccc3s2)c(=O)c2cccnc12 [Example 15, 6-(5-trifluoromethylbenzothiazole-2-ylmethyl) -5-oxo-6H-pyrido[2,3-d]pyridazine-8-ylacetic acid]"
94%,91%,90%,"O=C(O)Cc1nn(Cc2nc3cc(F)ccc3s2)c(=O)c2cccnc12 [Example 16, 6-(5-fluorobenzothiazole-2-ylmethyl)-5-oxo-6H-pyrido[2,3-d]pyridazine-8-ylacetic acid]"
75%,65%,39%,O=C(O)Cc1nn(Cc2nc3cc(F)cc(F)c3s2)c(=O)c2cccnc12 [Example 17]
93%,87%,31%,"O=C(O)Cc1nn(Cc2nc3cc(Br)ccc3o2)c(=O)c2cccnc12 [Example 18, 6-(5-bromobenzoxazole-2-ylmethyl)-5-oxo-6H-pyrido[2,3-d]pyridazine-8-ylacetic acid]"
80%,60%,8%,"O=C(O)Cc1nn(Cc2cc3c(Cl)cccc3s2)c(=O)c2cccnc12 [Example 19, 6-(4-chlorobenzothiophene-2-ylmethyl)-5-oxo-6H-pyrido[2,3-d]pyridazine-8-ylacetic acid]"
77%,72%,43%,"O=C(O)Cc1nn(Cc2noc(-c3ccccc3C(F)(F)F)n2)c(=O)c2cccnc12 [Example 20, 6-[5-(2-trifluoromethylphenyl)-1,2,4-oxadiazole-3-ylmethyl]-5-oxo-6H-pyrido[2,3-d]pyridazine-8-ylacetic acid]"
86%,76%,30%,"O=C(O)Cc1nn(Cc2ccc(Br)cc2F)c(=O)c2cccnc12 [Example 21, 6-(4-bromo-2-fluorobenzyl)-5-oxo-6H-pyrido[2,3-d]pyridazine-8-ylacetic acid]"
